# Source: the supplement of paper PMC9912026
# ± gives the uncertainty stated by the source.
# Test system: A375
# Assay: pERK immunofluorescence, normalised; higher = more ERK phosphorylation
# Conditions: vemurafenib 0 µM, drug treatment time 24 h
# Experimental: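 A375 or A375 CRISPRa-EGFR (A375_Cra_F7_5/13) cells were adapted for 24 h to a cobimetinib dose series, with or without 1 uM vemurafenib, then stimulated with EGF (100 ng/mL) or mock medium and fixed at the indicated times. pERK was measured by immunofluorescence as the population mean normalised to baseline, with the SD of technical replicates (n=2).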
smiles,measurement,setting,value
O=C(c1ccc(F)c(F)c1Nc1ccc(I)cc1F)N1CC(O)([C@@H]2CCCCN2)C1 [cobimetinib],pERK immunofluorescence,"EGF 0 ng/mL, time after EGF/mock 0.083 h, cobimetinib 31.62 pM",0.965 ± 0.018
same,pERK immunofluorescence,"EGF 0 ng/mL, time after EGF/mock 0.083 h, cobimetinib 0.0001 µM",0.9579 ± 0.0028
same,pERK immunofluorescence,"EGF 0 ng/mL, time after EGF/mock 0.083 h, cobimetinib 0.000316228 µM",0.873 ± 0.041
same,pERK immunofluorescence,"EGF 0 ng/mL, time after EGF/mock 0.083 h, cobimetinib 0.001 µM",0.658 ± 0.028
same,pERK immunofluorescence,"EGF 0 ng/mL, time after EGF/mock 0.083 h, cobimetinib 0.003162278 µM",0.313 ± 0.0071
same,pERK immunofluorescence,"EGF 0 ng/mL, time after EGF/mock 0.083 h, cobimetinib 0.01 µM",0.16 ± 0.0032
same,pERK immunofluorescence,"EGF 0 ng/mL, time after EGF/mock 0.083 h, cobimetinib 0.031622777 µM",0.1379 ± 0.0011
same,pERK immunofluorescence,"EGF 0 ng/mL, time after EGF/mock 0.083 h, cobimetinib 0.1 µM",0.13 ± 0.0026
same,pERK immunofluorescence,"EGF 0 ng/mL, time after EGF/mock 0.083 h, cobimetinib 0.316227766 µM",0.1264 ± 0.00022
same,pERK immunofluorescence,"EGF 0 ng/mL, time after EGF/mock 0.083 h, cobimetinib 1 µM",0.1263 ± 0.00091
same,pERK immunofluorescence,"EGF 0 ng/mL, time after EGF/mock 0.5 h, cobimetinib 31.62 pM",0.9998 ± 0.0072
same,pERK immunofluorescence,"EGF 0 ng/mL, time after EGF/mock 0.5 h, cobimetinib 0.0001 µM",0.958 ± 0.029
same,pERK immunofluorescence,"EGF 0 ng/mL, time after EGF/mock 0.5 h, cobimetinib 0.000316228 µM",0.8944 ± 0.008
same,pERK immunofluorescence,"EGF 0 ng/mL, time after EGF/mock 0.5 h, cobimetinib 0.001 µM",0.679 ± 0.0098
same,pERK immunofluorescence,"EGF 0 ng/mL, time after EGF/mock 0.5 h, cobimetinib 0.003162278 µM",0.306 ± 0.013
same,pERK immunofluorescence,"EGF 0 ng/mL, time after EGF/mock 0.5 h, cobimetinib 0.01 µM",0.157 ± 0.0021
same,pERK immunofluorescence,"EGF 0 ng/mL, time after EGF/mock 0.5 h, cobimetinib 0.031622777 µM",0.135 ± 0.0013
same,pERK immunofluorescence,"EGF 0 ng/mL, time after EGF/mock 0.5 h, cobimetinib 0.1 µM",0.1283 ± 0.00077
same,pERK immunofluorescence,"EGF 0 ng/mL, time after EGF/mock 0.5 h, cobimetinib 0.316227766 µM",0.1262 ± 0.00025
same,pERK immunofluorescence,"EGF 0 ng/mL, time after EGF/mock 0.5 h, cobimetinib 1 µM",0.126 ± 0.0013
same,pERK immunofluorescence,"EGF 0 ng/mL, time after EGF/mock 2 h, cobimetinib 31.62 pM",0.961 ± 0.033
same,pERK immunofluorescence,"EGF 0 ng/mL, time after EGF/mock 2 h, cobimetinib 0.0001 µM",0.958 ± 0.053
same,pERK immunofluorescence,"EGF 0 ng/mL, time after EGF/mock 2 h, cobimetinib 0.000316228 µM",0.904 ± 0.014
same,pERK immunofluorescence,"EGF 0 ng/mL, time after EGF/mock 2 h, cobimetinib 0.001 µM",0.746 ± 0.025
same,pERK immunofluorescence,"EGF 0 ng/mL, time after EGF/mock 2 h, cobimetinib 0.003162278 µM",0.358 ± 0.057
same,pERK immunofluorescence,"EGF 0 ng/mL, time after EGF/mock 2 h, cobimetinib 0.01 µM",0.152 ± 0.0073
same,pERK immunofluorescence,"EGF 0 ng/mL, time after EGF/mock 2 h, cobimetinib 0.031622777 µM",0.1311 ± 0.00015
same,pERK immunofluorescence,"EGF 0 ng/mL, time after EGF/mock 2 h, cobimetinib 0.1 µM",0.1245 ± 0.00041
same,pERK immunofluorescence,"EGF 0 ng/mL, time after EGF/mock 2 h, cobimetinib 0.316227766 µM",0.1235 ± 0.00032
same,pERK immunofluorescence,"EGF 0 ng/mL, time after EGF/mock 2 h, cobimetinib 1 µM",0.1235 ± 0.00061
same,pERK immunofluorescence,"EGF 0 ng/mL, time after EGF/mock 8 h, cobimetinib 31.62 pM",0.97332 ± 0.0006
same,pERK immunofluorescence,"EGF 0 ng/mL, time after EGF/mock 8 h, cobimetinib 0.0001 µM",0.972 ± 0.02
same,pERK immunofluorescence,"EGF 0 ng/mL, time after EGF/mock 8 h, cobimetinib 0.000316228 µM",0.93 ± 0.011
same,pERK immunofluorescence,"EGF 0 ng/mL, time after EGF/mock 8 h, cobimetinib 0.001 µM",0.7507 ± 0.0056
same,pERK immunofluorescence,"EGF 0 ng/mL, time after EGF/mock 8 h, cobimetinib 0.003162278 µM",0.312 ± 0.032
same,pERK immunofluorescence,"EGF 0 ng/mL, time after EGF/mock 8 h, cobimetinib 0.01 µM",0.132 ± 0.0023
same,pERK immunofluorescence,"EGF 0 ng/mL, time after EGF/mock 8 h, cobimetinib 0.031622777 µM",0.1135 ± 0.001
same,pERK immunofluorescence,"EGF 0 ng/mL, time after EGF/mock 8 h, cobimetinib 0.1 µM",0.113 ± 0.0043
same,pERK immunofluorescence,"EGF 0 ng/mL, time after EGF/mock 8 h, cobimetinib 0.316227766 µM",0.105 ± 0.0012
same,pERK immunofluorescence,"EGF 0 ng/mL, time after EGF/mock 8 h, cobimetinib 1 µM",0.1046 ± 0.00065
same,pERK immunofluorescence,"EGF 0 ng/mL, time after EGF/mock 24 h, cobimetinib 31.62 pM",0.962 ± 0.021
same,pERK immunofluorescence,"EGF 0 ng/mL, time after EGF/mock 24 h, cobimetinib 0.0001 µM",0.985 ± 0.085
same,pERK immunofluorescence,"EGF 0 ng/mL, time after EGF/mock 24 h, cobimetinib 0.000316228 µM",0.952 ± 0.037
same,pERK immunofluorescence,"EGF 0 ng/mL, time after EGF/mock 24 h, cobimetinib 0.001 µM",0.817 ± 0.045
same,pERK immunofluorescence,"EGF 0 ng/mL, time after EGF/mock 24 h, cobimetinib 0.003162278 µM",0.399 ± 0.058
same,pERK immunofluorescence,"EGF 0 ng/mL, time after EGF/mock 24 h, cobimetinib 0.01 µM",0.1129 ± 0.00064
same,pERK immunofluorescence,"EGF 0 ng/mL, time after EGF/mock 24 h, cobimetinib 0.031622777 µM",0.10189 ± 7.8e-06
same,pERK immunofluorescence,"EGF 0 ng/mL, time after EGF/mock 24 h, cobimetinib 0.1 µM",0.103 ± 0.0015
same,pERK immunofluorescence,"EGF 0 ng/mL, time after EGF/mock 24 h, cobimetinib 0.316227766 µM",0.1021 ± 0.00052
same,pERK immunofluorescence,"EGF 0 ng/mL, time after EGF/mock 24 h, cobimetinib 1 µM",0.0982 ± 0.0013
same,pERK immunofluorescence,"EGF 100 ng/mL, time after EGF/mock 0.083 h, cobimetinib 31.62 pM",1.19 ± 0.033
same,pERK immunofluorescence,"EGF 100 ng/mL, time after EGF/mock 0.083 h, cobimetinib 0.0001 µM",1.2 ± 0.04
same,pERK immunofluorescence,"EGF 100 ng/mL, time after EGF/mock 0.083 h, cobimetinib 0.000316228 µM",1.133 ± 0.0081
same,pERK immunofluorescence,"EGF 100 ng/mL, time after EGF/mock 0.083 h, cobimetinib 0.001 µM",1.18 ± 0.0047
same,pERK immunofluorescence,"EGF 100 ng/mL, time after EGF/mock 0.083 h, cobimetinib 0.003162278 µM",1.39 ± 0.057
same,pERK immunofluorescence,"EGF 100 ng/mL, time after EGF/mock 0.083 h, cobimetinib 0.01 µM",1.4 ± 0.028
same,pERK immunofluorescence,"EGF 100 ng/mL, time after EGF/mock 0.083 h, cobimetinib 0.031622777 µM",1.37 ± 0.015
same,pERK immunofluorescence,"EGF 100 ng/mL, time after EGF/mock 0.083 h, cobimetinib 0.1 µM",1.04 ± 0.03
same,pERK immunofluorescence,"EGF 100 ng/mL, time after EGF/mock 0.083 h, cobimetinib 0.316227766 µM",0.268 ± 0.022
same,pERK immunofluorescence,"EGF 100 ng/mL, time after EGF/mock 0.083 h, cobimetinib 1 µM",0.134 ± 0.0014
same,pERK immunofluorescence,"EGF 100 ng/mL, time after EGF/mock 0.5 h, cobimetinib 31.62 pM",1.03 ± 0.057
same,pERK immunofluorescence,"EGF 100 ng/mL, time after EGF/mock 0.5 h, cobimetinib 0.0001 µM",1.03 ± 0.005
same,pERK immunofluorescence,"EGF 100 ng/mL, time after EGF/mock 0.5 h, cobimetinib 0.000316228 µM",0.9538 ± 0.0018
same,pERK immunofluorescence,"EGF 100 ng/mL, time after EGF/mock 0.5 h, cobimetinib 0.001 µM",0.887 ± 0.013
same,pERK immunofluorescence,"EGF 100 ng/mL, time after EGF/mock 0.5 h, cobimetinib 0.003162278 µM",0.782 ± 0.024
same,pERK immunofluorescence,"EGF 100 ng/mL, time after EGF/mock 0.5 h, cobimetinib 0.01 µM",0.594 ± 0.017
same,pERK immunofluorescence,"EGF 100 ng/mL, time after EGF/mock 0.5 h, cobimetinib 0.031622777 µM",0.411 ± 0.015
same,pERK immunofluorescence,"EGF 100 ng/mL, time after EGF/mock 0.5 h, cobimetinib 0.1 µM",0.333 ± 0.0083
same,pERK immunofluorescence,"EGF 100 ng/mL, time after EGF/mock 0.5 h, cobimetinib 0.316227766 µM",0.336 ± 0.0073
same,pERK immunofluorescence,"EGF 100 ng/mL, time after EGF/mock 0.5 h, cobimetinib 1 µM",0.144 ± 0.0022
same,pERK immunofluorescence,"EGF 100 ng/mL, time after EGF/mock 2 h, cobimetinib 31.62 pM",0.959 ± 0.028
same,pERK immunofluorescence,"EGF 100 ng/mL, time after EGF/mock 2 h, cobimetinib 0.0001 µM",0.965 ± 0.052
same,pERK immunofluorescence,"EGF 100 ng/mL, time after EGF/mock 2 h, cobimetinib 0.000316228 µM",0.891 ± 0.015
same,pERK immunofluorescence,"EGF 100 ng/mL, time after EGF/mock 2 h, cobimetinib 0.001 µM",0.782 ± 0.013
same,pERK immunofluorescence,"EGF 100 ng/mL, time after EGF/mock 2 h, cobimetinib 0.003162278 µM",0.4241 ± 0.0024
same,pERK immunofluorescence,"EGF 100 ng/mL, time after EGF/mock 2 h, cobimetinib 0.01 µM",0.176 ± 0.003
same,pERK immunofluorescence,"EGF 100 ng/mL, time after EGF/mock 2 h, cobimetinib 0.031622777 µM",0.136 ± 0.0016
same,pERK immunofluorescence,"EGF 100 ng/mL, time after EGF/mock 2 h, cobimetinib 0.1 µM",0.1271 ± 0.00033
same,pERK immunofluorescence,"EGF 100 ng/mL, time after EGF/mock 2 h, cobimetinib 0.316227766 µM",0.1234 ± 0.00085
same,pERK immunofluorescence,"EGF 100 ng/mL, time after EGF/mock 2 h, cobimetinib 1 µM",0.12285 ± 0.00011
same,pERK immunofluorescence,"EGF 100 ng/mL, time after EGF/mock 8 h, cobimetinib 31.62 pM",0.946 ± 0.016
same,pERK immunofluorescence,"EGF 100 ng/mL, time after EGF/mock 8 h, cobimetinib 0.0001 µM",0.9729 ± 0.00013
same,pERK immunofluorescence,"EGF 100 ng/mL, time after EGF/mock 8 h, cobimetinib 0.000316228 µM",0.909 ± 0.046
same,pERK immunofluorescence,"EGF 100 ng/mL, time after EGF/mock 8 h, cobimetinib 0.001 µM",0.786 ± 0.042
same,pERK immunofluorescence,"EGF 100 ng/mL, time after EGF/mock 8 h, cobimetinib 0.003162278 µM",0.487 ± 0.036
same,pERK immunofluorescence,"EGF 100 ng/mL, time after EGF/mock 8 h, cobimetinib 0.01 µM",0.168 ± 0.012
same,pERK immunofluorescence,"EGF 100 ng/mL, time after EGF/mock 8 h, cobimetinib 0.031622777 µM",0.124 ± 0.0018
same,pERK immunofluorescence,"EGF 100 ng/mL, time after EGF/mock 8 h, cobimetinib 0.1 µM",0.114 ± 0.0024
same,pERK immunofluorescence,"EGF 100 ng/mL, time after EGF/mock 8 h, cobimetinib 0.316227766 µM",0.1065 ± 0.00016
same,pERK immunofluorescence,"EGF 100 ng/mL, time after EGF/mock 8 h, cobimetinib 1 µM",0.1039 ± 0.00017
same,pERK immunofluorescence,"EGF 100 ng/mL, time after EGF/mock 24 h, cobimetinib 31.62 pM",0.8607 ± 0.0067
same,pERK immunofluorescence,"EGF 100 ng/mL, time after EGF/mock 24 h, cobimetinib 0.0001 µM",0.897 ± 0.04
same,pERK immunofluorescence,"EGF 100 ng/mL, time after EGF/mock 24 h, cobimetinib 0.000316228 µM",0.854 ± 0.023
same,pERK immunofluorescence,"EGF 100 ng/mL, time after EGF/mock 24 h, cobimetinib 0.001 µM",0.773 ± 0.0081
same,pERK immunofluorescence,"EGF 100 ng/mL, time after EGF/mock 24 h, cobimetinib 0.003162278 µM",0.518 ± 0.007
same,pERK immunofluorescence,"EGF 100 ng/mL, time after EGF/mock 24 h, cobimetinib 0.01 µM",0.128 ± 0.0053
same,pERK immunofluorescence,"EGF 100 ng/mL, time after EGF/mock 24 h, cobimetinib 0.031622777 µM",0.1071 ± 0.00016
same,pERK immunofluorescence,"EGF 100 ng/mL, time after EGF/mock 24 h, cobimetinib 0.1 µM",0.1048 ± 0.00075
same,pERK immunofluorescence,"EGF 100 ng/mL, time after EGF/mock 24 h, cobimetinib 0.316227766 µM",0.104 ± 0.00095
same,pERK immunofluorescence,"EGF 100 ng/mL, time after EGF/mock 24 h, cobimetinib 1 µM",0.0978 ± 0.0009
